# BindingDB's records for doi:10.7270/Q2WW7G03 (The Scripps Research Institute Molecular Screening Center, 2007)
# Target: T1, 5-hydroxytryptamine receptor 1A (Homo sapiens, UniProt P08908)
# T1 sequence (P08908 whole entry): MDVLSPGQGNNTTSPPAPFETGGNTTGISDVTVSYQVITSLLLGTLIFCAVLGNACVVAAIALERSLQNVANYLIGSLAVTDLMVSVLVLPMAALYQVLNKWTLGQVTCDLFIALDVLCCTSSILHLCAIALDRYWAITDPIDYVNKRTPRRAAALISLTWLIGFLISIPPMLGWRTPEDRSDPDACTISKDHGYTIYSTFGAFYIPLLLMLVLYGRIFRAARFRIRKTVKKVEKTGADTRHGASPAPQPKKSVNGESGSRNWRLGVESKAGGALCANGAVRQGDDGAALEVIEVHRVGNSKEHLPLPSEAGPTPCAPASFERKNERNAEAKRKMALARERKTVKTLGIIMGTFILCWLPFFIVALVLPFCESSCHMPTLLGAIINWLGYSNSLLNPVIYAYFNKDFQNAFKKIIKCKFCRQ
# Experiment: serotonin 1A receptor activation, dose response (AID 718)
# Conditions: pH 7.4; 23 °C
row,EC50,SMILES
1,50 µM,Cn1cc(C(Cc2ccccc2)N=O)c2ccccc21 (stereo not drawn) [1-(1-methyl-3-indolyl)-2-phenylethanone oxime]
2,50 µM,CN1CCN(C(N=O)c2nonc2N)CC1 (stereo not drawn)
3,50 µM,CCOC(=O)C1C(C)=NC(=O)NC1c1ccc(OCC(=O)Nc2ccccc2)c(OC)c1 (stereo not drawn) [SMR000093032]
